Data taken from PMC11912471 (Journal of Medicinal Chemistry, 2025).
Structures can show the parent of a compound that is named as a salt.

Legend:
[1] = tested on: Kelly neuroblastoma cells; assay: Sulforhodamine B (SRB) cytotoxicity assay, Kelly neuroblastoma cells; assay type: cell-based; conditions: for Cell cytotoxicity (72 hr @ 500 μM) Kelly Neuroblastoma: percent cytotoxicity; for cytotoxicity at 500 µM: Kelly, 72 hrs @500 µM, supplement csv, read-out: Kelly Neuroblasoma Cells (72 hrs @500 µM) %cytotoxicity
Experimental: (§1) Our strategy to identify novel ODC inhibitors was to first screen new analogs for ODC inhibition at 50 μM using our in vitro enzyme activity assay and purified human ODC (Table 1). Those showing significant inhibition were then titrated to provide an ODC IC50 followed by cell-based screening against both cancer (Kelly neuroblastoma) and noncancerous (neonatal fibroblasts) cell lines. For the cancer cell line, higher cytotoxicity was desired and for the noncancerous cell line counter screen, lower cytotoxicity was desired.
(§2) Normal primary human neonatal fibroblast cells (ATCC) were maintained in DMEM medium (Gibco) supplemented with 10% heat-inactivated fetal bovine serum (Hyclone), penicillin (100 IU/mL), and streptomycin (100 μg/mL), nonessential amino acids (0.1 mM) and sodium pyruvate (1 mM). Kelly neuroblastoma cells (Sigma-Aldrich) were maintained in RPMI medium (Corning) supplemented with 10% heat-inactivated fetal bovine serum (Hyclone), penicillin (100 IU/mL), and streptomycin (100 μg/mL). Cell lines were routinely monitored for mycoplasma contamination using the MycoAlert PLUS Mycoplasma Detection Kit (Lonza).
(§3) The colorimetric sulforhodamine B (SRB) assay was used to measure cytotoxicity following treatment with ODC inhibitors. Briefly, Kelly neuroblastoma cells and normal primary human neonatal fibroblast cells were plated in transparent flat 96-well plates and allowed to attach overnight. Cells were treated with control or 500 μM ODC inhibitor for 72 h. Cells were then fixed with 10% TCA at 4 °C for 1 h, washed with deionized water, and dried at room temperature. Cells were stained with 100 μL of 0.4% SRB in 1% acetic acid for 20 min at room temperature, rinsed five times with 1% acetic acid and allowed to dry at room temperature. One hundred μL of 10 mM Tris–HCl pH 7.0 was added to each well, shaken for 10 min at room temperature and absorbance was read at 540 nm. Absorbance values were normalized relative to control readings and converted to percentage by multiplying by one hundred. The percent cytotoxicity was then determined by subtracting the relative percentage of the ODC inhibitor treated readings from the control which is 100%.

[2] = Sulforhodamine B (SRB) cytotoxicity assay, neonatal fibroblasts; assay type: cell-based, human; conditions: human, normal primary neonatal fibroblast cells; 72 hrs @500 µM; supplement csv
Experimental: as §1, §2, §3

[3] = tested on: normal primary human neonatal fibroblast cells; assay: as above; assay type: cell-based; conditions: 500 μM; for Cell cytotoxicity (72 hr @ 500 μM) Neonatal Fibroblasts: percent cytotoxicity
Experimental: as §1, §2, §3

[4] = target: T1, endogenous ODC in Kelly neuroblastoma cells (Homo sapiens, UniProt P11926); assay: Cell-based ODC activity assay; conditions: 500 μM inhibitor, Figure 6A
T1 construct: host or cells: Kelly neuroblastoma cells
T1 sequence (P11926 1-461): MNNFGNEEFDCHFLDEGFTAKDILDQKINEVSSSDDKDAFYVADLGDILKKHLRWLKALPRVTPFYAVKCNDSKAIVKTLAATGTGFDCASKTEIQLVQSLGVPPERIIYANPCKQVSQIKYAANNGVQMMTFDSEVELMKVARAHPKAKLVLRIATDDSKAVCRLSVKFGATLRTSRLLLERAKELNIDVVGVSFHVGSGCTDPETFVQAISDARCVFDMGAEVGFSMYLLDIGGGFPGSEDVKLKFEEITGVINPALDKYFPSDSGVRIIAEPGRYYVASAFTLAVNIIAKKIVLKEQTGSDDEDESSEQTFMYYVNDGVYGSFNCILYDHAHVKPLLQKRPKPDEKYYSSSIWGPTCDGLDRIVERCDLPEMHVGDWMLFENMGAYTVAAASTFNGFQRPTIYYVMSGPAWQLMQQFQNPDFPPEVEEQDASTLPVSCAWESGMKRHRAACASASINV
Experimental: In vitro ODC activity was measured using 100 ng of purified human ODC enzyme, as we previously described.[53],[99] ODC was incubated with increasing concentrations of inhibitors for 30 min at room temperature in a buffer containing 25 mM Tris and 0.1 mM EDTA. Each of the reactions was added to 200 μL of assay mix containing 6.25 mM Tris HCl (pH 7.5), 100 μM L-ornithine, 50 μM pyridoxal-5-phosphate, 1.56 mM DTT and 0.1 μCi [1–14C] L-ornithine (American Radiolabeled Chemicals, Inc., specific activity 55 mCi/mmol) in a microcentrifuge tube. In the cell-based ODC activity assay, Kelly neuroblastoma cells that were treated with 500 μM inhibitors were harvested in a buffer containing 25 mM Tris HCl, 0.1 mM EDTA, and 2.5 mM DTT. Fifty microliters of each homogenate were added to 200 μL of assay mix containing 6.25 mM tris HCl (pH 7.5), 500 μM L-ornithine, 50 μM pyridoxal-5-phosphate, 1.56 mM DTT and 0.1 μCi [1–14C] L-ornithine (American Radiolabeled Chemicals, Inc., specific activity 55 mCi/mmol) in a microcentrifuge tube. […] Disintegrations per minute (DPM) of each sample was measured using a TriCarb liquid scintillation counter (PerkinElmer). The specific ODC activity is expressed as nmol CO2/min/mg protein (in vitro) or pmol CO2/min/mg protein (cell-based). The individual ODC inhibitor IC50 values were determined using Graphpad Prism 8.

[5] = target: homogeneous mouse kidney ODC; design: method as in PMID 3861182; conditions: competitive; read-out: Ki, competitive inhibitor of mouse kidney ODC; cited from earlier work
[6] = target: homogeneous liver adenosylmethionine decarboxylase; design: method as in PMID 3861182; conditions: irreversible; read-out: Ki, irreversible inhibitor of liver adenosylmethionine decarboxylase; cited from earlier work
[7] = target: homogeneous bovine brain spermidine synthase; design: method as in PMID 3861182; conditions: competitive; read-out: Ki, competitive inhibitor of bovine brain spermidine synthase; cited from earlier work
[8] = tested on: human ODC; design: method as in earlier work; conditions: 49−51; cited from earlier work
[9] = cited from earlier work
[10] = no reference printed for this property; cited from earlier work

SMILES | activity against Kelly neuroblastoma cells (in words) ([1]; 72 h, 500 μM) | Cell cytotoxicity (72 hr @ 500 μM) Kelly Neuroblastoma ([1]; 500 μM) | cytotoxicity at 500 µM [1] | cytotoxicity at 72 h, 500 µM [2] | cytotoxic activity against neonatal fibroblasts (in words) ([3]; 72 h) | Cell cytotoxicity (72 hr @ 500 μM) Neonatal Fibroblasts [3] | endogenous cellular ODC activity relative to control (in words) [4] | Ki [5] | Ki [6] | Ki [7] | IC50 against human ODC (in words) [8] | potency against human ODC, times higher than that of DFMO [8] | pKa of hydroxyl amine [9] | water solubility (in words) [10]
NCCCON [APA, 3-(Aminooxy)propan-1-Amine Dihydrochloride] | greater anticancer activity | 77±21% | 77% | 37% | somewhat reduced overt cytotoxic activity | 37±10% | significantly reduced | 3.2 nM | 50000 nM | 2300 nM | low nM range | 10,000 times | ~5.9 | highly water-soluble
Cl.Cl.NOCC1(F)CCNC1 (stereo not shown) [Compound 11, 3-[(aminooxy)methyl]-3-fluoropyrrolidine di-formic acid] | – | 46±9% | 46% | 21% | – | 21±17% | greatest reduction | – | – | – | – | – | – | –
